What was measured:
[1] = test system: braun planthopper (Nilaparvata lugens); experiment: Nilaparvata lugens-Test (NILALU hydroponic application); type: in vivo; conditions: after the specified period of time
Excerpt: Nilaparvata lugens-Test; (NILALU Hydroponic Application)
(§1) • Solvent: 78.0 parts by weight of acetone • 1.5 parts by weight of dimethylformamide • Emulsifier: 0.5 parts by weight of alkylaryl polyglycolether

[2] = test system: mustard beetle larvae (Phaedon cochleariae); experiment: Phaedon cochleariae-Test (PHAECO spray application); type: in vivo; conditions: 168 h, spray on Chinese cabbage leaf-disks, after 7 days
Excerpt: Phaedon cochleariae-Test; (PHAECO Spray Application)
as §1
Chinese cabbage (Brassica pekinesis) leaf-disks are sprayed with a preparation of the active ingredient of the desired concentration.

[3] = test system: fall armyworm larvae (Spodoptera frugiperda); experiment: Spodoptera frugiperda-Test (SPODFR spray application); type: in vivo; conditions: 168 h, spray on maize leaf sections, after 7 days
Excerpt: Spodoptera frugiperda-Test (SPODFR Spray Application)
(§2) • Solvent: 78.0 parts by weight acetone • 1.5 parts by weight dimethylformamide • Emulsifier: 0.5 parts by weight alkylarylpolyglcolether
Maize (Zea mais) leaf sections are sprayed with a preparation of the active ingredient of the desired concentration. Once dry, the leaf sections are infested with fall armyworm larvae (Spodoptera frugiperda). […] 100% means that all caterpillars have been killed and 0% means that none of the caterpillars have been killed.

[4] = test system: white fly (Bemisia tabaci); experiment: Bemisia tabaci-Test (BEMITA); type: in vivo; conditions: 168 h, spray on cotton plants, after 7 days
Excerpt: Bemisia tabaci-Test (BEMITA)
Cotton plants (Gossypium hirsutum) infested with eggs, larvae and pupae of the white fly (Bemisia tabaci) are sprayed with a test solution containing the desired concentration of the active ingredient.

[5] = test system: two-spotted spider mite (Tetranychus urticae); experiment: Tetranychus-Test (OP-resistant); type: in vivo; conditions: read-out: mortality in %
Excerpt: Tetranychus-Test (OP-Resistant)

[6] = test system: am. serpentine leaf miner (Liriomyza trifolii); experiment: Liriomyza trifolii-Test (LIRITR spray application); type: in vivo; conditions: 168 h, spray on French bean leaf-disks, after 7 days
Excerpt: Liriomyza trifolii-Test (LIRITR Spray Application)
as §1
French bean (Phaseolus vulgaris) leaf-disks infested with larvaes of the am. serpentine leaf miner (Liriomyza trifolii) are sprayed with a test solution containing the desired concentration of the active ingredient.

[7] = test system: green peach aphid (Myzus persicae); experiment: Myzus persicae-Test (MYZUPE spray application); type: in vivo; conditions: 144 h, spray on Chinese cabbage leaf-disks, after 6 days
Excerpt: Myzus persicae-Test; (MYZUPE Spray Application)
as §2
Chinese cabbage (Brassica pekinesis) leaf-disks infected with all instars of the green peach aphid (Myzus persicae), are sprayed with a preparation of the active ingredient at the desired concentration.

[8] = test system: two spotted spidermite (Tetranychus urticae); experiment: Tetranychus urticae-Test, OP-resistant (TETRUR spray application); type: in vivo; conditions: 144 h, spray on French beans, after 6 days
Excerpt: Tetranychus urticae-Test; (OP-Resistant (TETRUR Spray Application)
as §2

Phytophthora infestans = type: in vivo; conditions: 500 ppm, tomato, preventive, 7 days after the inoculation
[9] = test system: green peach aphid (Myzus persicae); experiment: Myzus persicae-Test (MYZUPE); type: in vivo; conditions: 144 h, spray on cabbage leaves, after 6 days
Procedure: Myzus persicae-Test (MYZUPE)
(§3) After 6 days mortality in % is determined.

[10] = test system: cotton aphid (Aphis gossypii); experiment: Aphis gossypii Test (APHIGO); type: in vivo; conditions: 144 h, spray on cotton leaves, after 6 days
Procedure: Aphis gossypii Test (APHIGO)
as §3

[11] = test system: larvae of the diamondback moth (Plutella xylostella/sensible strain); experiment: Plutella xylostella-Test (PLUTMA); type: in vivo; conditions: in Brassica oleracea, 168 h, read-out: mortality in %
Excerpt: Plutella xylostella-Test (PLUTMA)

[12] = test system: mustard beetle larvae (Phaedon cochleariae); experiment: Phaedon cochleariae larvae-Test; conditions: in Brassica oleracea, 168 h, read-out: mortality in %

| SMILES | mortality at 500 g/ha [1] | mortality at 500 g/ha [2] | mortality at 500 g/ha [3] | mortality at 20 ppm [4] | mortality at 500 g/ha [6] | mortality at 500 g/ha [7] | mortality at 500 g/ha [8] | other results |
| --- | --- | --- | --- | --- | --- | --- | --- | --- |
| Cc1ccc(-c2ccc(F)cc2)cc1C1=C(O)CC2(CCOCC2)CC1=O [Compound T74] | ≥ 80% | ≥ 80% | ≥ 80% | ≥ 80% | ≥ 80% |  |  | mortality at 20 ppm [5]: ≥ 80% |
| CCc1cc(C)cc(CC)c1C1=C(O)CC2(CCOCC2)CC1=O [Compound T22] |  |  |  |  |  | ≥ 80% |  |  |
| Cc1ccc(-c2ccc(F)cc2)c(C)c1C1=C(O)CC2(CCOCC2)CC1=O [Compound T76] |  | ≥ 80% | ≥ 80% |  |  | ≥ 80% | ≥ 80% |  |
| Cc1ccc(C)c(C2=C(OC(=O)N(C)CCC#N)CC3(CCOCC3)CC2=O)c1 |  |  |  |  |  |  |  | melting point: 108 to 114 °C |
| Cc1ccc(-c2ccc(Cl)cc2)cc1C1=C(O)CC2(CCOCC2)CC1=O [Compound T3] | ≥ 80% |  | ≥ 80% | ≥ 80% | ≥ 80% |  | ≥ 80% | Efficacy in % (Phytophthora infestans): 75%; mortality at 100 ppm [9]: ≥ 80%; mortality at 100 ppm [10]: ≥ 80%; mortality at 100 ppm [11]: ≥ 80%; mortality at 100 ppm [12]: ≥ 80% |
| O=C1CC2(CCOCC2)CC(O)=C1c1cc(-c2ccc(F)cc2)ccc1Cl [Compound T75] |  |  |  | ≥ 80% | ≥ 80% | ≥ 80% | ≥ 80% |  |
